Measured values reported in patent US20250382574A1, “CELL CULTURE METHOD” (Takeda Pharmaceutical Company Limited, priority 2022, published 2025).
Like-named read-outs stand apart in the source and are kept apart here.

Assays:
[1] = system: iPS cell-derived CAR-T cells; test: Proliferation test, ITS-X and taurine added to 0.3 mM boric acid-containing serum-free medium; type: cell-based; settings: for viability (%): serum-free expansion medium, boric acid 0.3 mM
Method: A total of five types of expansion culture media were prepared: Advanced DMEM/F12 medium (Thermo Fisher) containing additives shown in the “expansion culture medium” column in Table 4, and said medium further added with either 0.3 mM boric acid (Sigma-Aldrich), 0.3 mM boric acid and 1×ITS-X ((Insulin-Transferrin-Selenium-Ethanolamine Supplements) Gibco), 0.3 mM boric acid and 1×ITS-X and 1 mM taurine (Sigma-Aldrich), or 0.3 mM boric acid and 1×ITS-X and 3 mM taurine (medium supplemented with only additives in Table 4, medium supplemented with additives in Table 4+0.3 mM boric acid, medium supplemented with additives in Table 4+0.3 mM boric acid+ITS-X, medium supplemented with additives in Table 4+0.3 mM boric acid+ITS-X+1 mM taurine, medium supplemented with additives in Table 4+0.3 mM boric acid+ITS-X+3 mM taurine). After 3 days of activation culture, the cells were collected from the T225 flask and suspended in each of the five types of expansion culture media at 40,000 cells/mL, and cultured under 5% CO2/37° C. using G-Rex (registered trademark) 10M (Wilson Wolf). Then, on the fifth day of culture, some of the cells were recovered from G-Rex (registered trademark) 10M and the cells were counted, and the medium was replaced with the respective medium. On the sixth day of culture, some of the cells were recovered from G-Rex (registered trademark) 10M and the cells were counted. On the 7th and 10th days of culture, some of the cells were recovered from the plate, counted, and seeded onto a G-Rex (registered trademark) 24-well plate (Wilson Wolf) containing each medium at 50,000 cells/mL. On the 12th and 14th days of culture, some of the cells were similarly collected from the G-Rex (registered trademark) 24-well plate, counted, and the medium was replaced with each medium.
In the expansion culture of item 5 in Example 4, the cell number and viability of iPS cell-derived CAR-T cells were measured on days 3, 5, 6, 7, 10, 12, and 14 of culture.

[2] = system: iPS cell-derived CAR-T cells; settings: 0.3 mM boric acid added to 1% FBS-containing medium; FIG. 1
From the text: Then, on the fifth day of culture, some of the cells were recovered from G-Rex (registered trademark) 10M and the cells were counted, and the medium was replaced with the respective medium. On the sixth day of culture, some of the cells were recovered from G-Rex (registered trademark) 10M and the cells were counted. […] On the 12th and 14th days of culture, some of the cells were similarly collected from the G-Rex (registered trademark) 24-well plate, counted, and the medium was replaced with each medium.

[3] = system: human-derived primary T cell-derived CAR-T cells; settings: boric acid 0.3 mM added to serum-free medium (BM220720); FIG. 5
[4] = system: iPS cell-derived CAR-T cells; settings: 0.3 mM boric acid added to serum-free medium; FIG. 2
Method: After 3 days of activation culture, the cells were collected from the T225 flask and suspended in each of the two types of expansion culture media at 40,000 cells/mL, and cultured under 5% CO2/37° C. using G-Rex (registered trademark) 10M (Wilson Wolf). Then, on the fifth day of culture, some of the cells were collected from G-Rex (registered trademark) 10M and counted, and the medium was replaced with each medium. On the 7th and 10th days of culture, the cells were counted by a similar method, seeded in a G-Rex (registered trademark) 24-well plate at 50, 000 cells/mL, and cultured in each medium. On the 12th and 14th days of culture, some of the cells were similarly collected from the plate, counted, and the medium was replaced with each medium.

[5] = system: iPS cell-derived CAR-T cells; settings: boric acid concentration range of 0.2 mM to 0.9 mM, serum-free medium; FIG. 3
Method: After 3 days of activation culture, the cells were collected from the T225 flask and suspended in each of the five types of expansion culture media at 50,000 cells/mL, and cultured under 5% CO2/37° C. using G-Rex (registered trademark) 24-well plate (Wilson Wolf). Then, on the fifth day of culture, some of the cells were recovered from G-Rex (registered trademark) 24-well plate and the cells were counted, and the medium was replaced with the respective medium. On the 7th day of culture, the cells were counted by a similar method, seeded in a fresh G-Rex (registered trademark) 24-well plate at 50,000 cells/mL, and cultured in each medium. On the 10th and 12th days of culture, some of the cells were similarly collected from the plate, counted, and the medium was replaced with each medium.

Structure (SMILES)	maximum difference (%) in viability between (3): without addition of Taurine and (4) or (5): with addition of Taurine ([1]; Day 5) [%]	maximum difference (%) in viability between (3): without addition of Taurine and (4) or (5): with addition of Taurine ([1]; Day 6) [%]	maximum difference (%) in viability between (3): without addition of Taurine and (4) or (5): with addition of Taurine ([1]; Day 7) [%]	maximum difference (%) in viability between (3): without addition of Taurine and (4) or (5): with addition of Taurine ([1]; Day 10) [%]	maximum difference (%) in viability between (3): without addition of Taurine and (4) or (5): with addition of Taurine ([1]; Day 12) [%]	maximum difference (%) in viability between (3): without addition of Taurine and (4) or (5): with addition of Taurine ([1]; Day 14) [%]	viability (%) ([1]; Day 5)	viability (%) ([1]; Day 6)	viability (%) ([1]; Day 7)	viability (%) ([1]; Day 10)	viability (%) ([1]; Day 12)	viability (%) ([1]; Day 14)	proliferation (cell proliferation fold from day 0 of expansion culture) [2]	proliferation (cell proliferation fold from day 0 of expansion culture) [3]	proliferation (cell proliferation fold from day 0 of expansion culture) [4]	cell viability [5]
NCCS(=O)(=O)O [Taurine, taurine]	2.9	1.6	2.5	3.7	1.9	1.3	–	–	–	–	–	–	–	–	–	–
OB(O)O [Boric acid, boric acid]	–	–	–	–	–	–	88.7	88.6	87.5	90.3	90.4	88.3	promoted	promoted	promoted	not influenced
